In the supplement of paper PMC10307832:

Columns and labels:
Assay in all cases: relative viability (nuclei count vs DMSO), 5 days (fraction); higher = more cells survive
[1] = compound: C1=CC2=NC=CN=C2C=C1/C=C/3\C(=O)NC(=O)S3 + CCNC(=O)c1noc(-c2cc(C(C)C)c(O)cc2O)c1-c1ccc(CN2CCOCC2)cc1 [Luminespib] (partner 0.01 µM)
In short: (§1)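 A single step with final 0.05% Triton X-100, 1% formaldehyde and 1 ug/ml Hoechst fixed the cells and stained nuclei 5 days after treatment. Lung cancer cell lines in 1536-well plates had been treated by pin tool the day after seeding with one drug alone or a fixed anchor-drug dose plus five library-drug doses (not always all listed) in √10 steps, and nuclei were counted on 4× images. Relative viability is the ratio of nuclei in treated wells to nuclei in vehicle wells, taken as the median of duplicate plates.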

BGJ398 + AZD7762 = compound: CCN1CCN(c2ccc(Nc3cc(N(C)C(=O)Nc4c(Cl)c(OC)cc(OC)c4Cl)ncn3)cc2)CC1 [BGJ398] + NC(=O)Nc1cc(-c2cccc(F)c2)sc1C(=O)N[C@H]1CCCNC1 [AZD7762] (partner 0.2 µM)
In short: as §1

[2] = compound: C1=CC2=NC=CN=C2C=C1/C=C/3\C(=O)NC(=O)S3 + CS(=O)(=O)N1CCN(Cc2cc3nc(-c4cccc5[nH]ncc45)nc(N4CCOCC4)c3s2)CC1 [Pictilisib] (partner 1 µM)
In short: as §1

BGJ398 + OSI-027 = compound: CCN1CCN(c2ccc(Nc3cc(N(C)C(=O)Nc4c(Cl)c(OC)cc(OC)c4Cl)ncn3)cc2)CC1 [BGJ398] + COc1cccc2cc(-c3nc([C@H]4CC[C@H](C(=O)O)CC4)n4ncnc(N)c34)[nH]c12 [OSI-027] (partner 0.5 µM)
In short: as §1

NCI-H1793 was tested. Which relative viability ([1]; first compound 0.02 µM) did it give?
The relative viability was 0.201.

What about the relative viability ([1]; first compound 0.06325 µM) of the same cell line?
The relative viability was 0.188.

And the relative viability ([1]; first compound 0.2 µM)?
The relative viability was 0.169.

What about the relative viability ([1]; first compound 0.6325 µM) of the same cell line?
The relative viability was 0.169.

What about the relative viability ([1]; first compound 2 µM) of the same cell line?
Its relative viability is 0.174.

And the relative viability (BGJ398 + AZD7762; first compound 0.01 µM)?
The relative viability was 0.466.

What about the relative viability (BGJ398 + AZD7762; first compound 0.03162 µM) of the same cell line?
Its relative viability is 0.406.

What about the relative viability (BGJ398 + AZD7762; first compound 0.1 µM) of the same cell line?
Its relative viability is 0.473.

What about the relative viability (BGJ398 + AZD7762; first compound 0.3162 µM) of the same cell line?
The relative viability was 0.434.

And the relative viability (BGJ398 + AZD7762; first compound 1 µM)?
Its relative viability is 0.419.

What about the relative viability ([2]; first compound 0.02 µM) of the same cell line?
The relative viability was 0.344.

And the relative viability ([2]; first compound 0.06325 µM)?
The relative viability was 0.395.

And the relative viability ([2]; first compound 0.2 µM)?
The relative viability was 0.328.

And the relative viability ([2]; first compound 0.6325 µM)?
Its relative viability is 0.294.

What about the relative viability ([2]; first compound 2 µM) of the same cell line?
Its relative viability is 0.263.

What about the relative viability (BGJ398 + OSI-027; first compound 0.01 µM) of the same cell line?
The relative viability was 0.326.

What about the relative viability (BGJ398 + OSI-027; first compound 0.03162 µM) of the same cell line?
Its relative viability is 0.309.

What about the relative viability (BGJ398 + OSI-027; first compound 0.1 µM) of the same cell line?
Its relative viability is 0.241.

And the relative viability (BGJ398 + OSI-027; first compound 0.3162 µM)?
Its relative viability is 0.229.

What about the relative viability (BGJ398 + OSI-027; first compound 1 µM) of the same cell line?
Its relative viability is 0.243.

What does the source list for NCI-H1915?
relative viability ([1]; first compound 0.02 µM): 0.771; relative viability ([1]; first compound 0.06325 µM): 0.747; relative viability ([1]; first compound 0.2 µM): 0.815; relative viability ([1]; first compound 0.6325 µM): 0.618; relative viability ([1]; first compound 2 µM): 0.754; relative viability (BGJ398 + AZD7762; first compound 0.01 µM): 0.696; relative viability (BGJ398 + AZD7762; first compound 0.03162 µM): 0.665; relative viability (BGJ398 + AZD7762; first compound 0.1 µM): 0.691; relative viability (BGJ398 + AZD7762; first compound 0.3162 µM): 0.576; relative viability (BGJ398 + AZD7762; first compound 1 µM): 0.724; relative viability ([2]; first compound 0.02 µM): 0.956; relative viability ([2]; first compound 0.06325 µM): 1.15; relative viability ([2]; first compound 0.2 µM): 1.12; relative viability ([2]; first compound 0.6325 µM): 0.774; relative viability ([2]; first compound 2 µM): 0.97; relative viability (BGJ398 + OSI-027; first compound 0.01 µM): 0.59; relative viability (BGJ398 + OSI-027; first compound 0.03162 µM): 0.614; relative viability (BGJ398 + OSI-027; first compound 0.1 µM): 0.62; relative viability (BGJ398 + OSI-027; first compound 0.3162 µM): 0.582; relative viability (BGJ398 + OSI-027; first compound 1 µM): 0.687

NCI-H1944 was tested. Which relative viability ([1]; first compound 0.02 µM) did it give?
The relative viability was 0.667.

What about the relative viability ([1]; first compound 0.06325 µM) of the same cell line?
Its relative viability is 0.515.

And the relative viability ([1]; first compound 0.2 µM)?
The relative viability was 0.75.

What about the relative viability ([1]; first compound 0.6325 µM) of the same cell line?
The relative viability was 0.695.

What about the relative viability ([1]; first compound 2 µM) of the same cell line?
The relative viability was 0.656.

And the relative viability (BGJ398 + AZD7762; first compound 0.01 µM)?
The relative viability was 0.561.

What about the relative viability (BGJ398 + AZD7762; first compound 0.03162 µM) of the same cell line?
The relative viability was 0.536.

And the relative viability (BGJ398 + AZD7762; first compound 0.1 µM)?
The relative viability was 0.484.

What about the relative viability (BGJ398 + AZD7762; first compound 0.3162 µM) of the same cell line?
The relative viability was 0.439.

And the relative viability (BGJ398 + AZD7762; first compound 1 µM)?
The relative viability was 0.516.

What about the relative viability ([2]; first compound 0.02 µM) of the same cell line?
The relative viability was 0.284.

And the relative viability ([2]; first compound 0.06325 µM)?
Its relative viability is 0.349.

What about the relative viability ([2]; first compound 0.2 µM) of the same cell line?
The relative viability was 0.367.

What about the relative viability ([2]; first compound 0.6325 µM) of the same cell line?
The relative viability was 0.319.

And the relative viability ([2]; first compound 2 µM)?
Its relative viability is 0.297.

What about the relative viability (BGJ398 + OSI-027; first compound 0.01 µM) of the same cell line?
The relative viability was 0.364.

And the relative viability (BGJ398 + OSI-027; first compound 0.03162 µM)?
The relative viability was 0.425.

And the relative viability (BGJ398 + OSI-027; first compound 0.1 µM)?
Its relative viability is 0.436.

What about the relative viability (BGJ398 + OSI-027; first compound 0.3162 µM) of the same cell line?
The relative viability was 0.388.

What about the relative viability (BGJ398 + OSI-027; first compound 1 µM) of the same cell line?
The relative viability was 0.329.

With NCI-H1975 as the cell line, how does the relative viability ([1]; first compound 0.02 µM) read?
Its relative viability is 0.289.

And the relative viability ([1]; first compound 0.06325 µM)?
The relative viability was 0.117.

What about the relative viability ([1]; first compound 0.2 µM) of the same cell line?
The relative viability was 0.202.

And the relative viability ([1]; first compound 0.6325 µM)?
The relative viability was 0.149.

And the relative viability ([1]; first compound 2 µM)?
The relative viability was 0.174.

What about the relative viability (BGJ398 + AZD7762; first compound 0.01 µM) of the same cell line?
The relative viability was 0.767.

And the relative viability (BGJ398 + AZD7762; first compound 0.03162 µM)?
Its relative viability is 0.711.

And the relative viability (BGJ398 + AZD7762; first compound 0.1 µM)?
Its relative viability is 0.78.

What about the relative viability (BGJ398 + AZD7762; first compound 0.3162 µM) of the same cell line?
Its relative viability is 0.666.

What about the relative viability (BGJ398 + AZD7762; first compound 1 µM) of the same cell line?
Its relative viability is 0.606.

What about the relative viability ([2]; first compound 0.02 µM) of the same cell line?
Its relative viability is 0.268.

What about the relative viability ([2]; first compound 0.06325 µM) of the same cell line?
Its relative viability is 0.298.

And the relative viability ([2]; first compound 0.2 µM)?
The relative viability was 0.314.

And the relative viability ([2]; first compound 0.6325 µM)?
Its relative viability is 0.246.

What about the relative viability ([2]; first compound 2 µM) of the same cell line?
The relative viability was 0.226.

What about the relative viability (BGJ398 + OSI-027; first compound 0.01 µM) of the same cell line?
Its relative viability is 0.71.

And the relative viability (BGJ398 + OSI-027; first compound 0.03162 µM)?
The relative viability was 0.923.

And the relative viability (BGJ398 + OSI-027; first compound 0.1 µM)?
The relative viability was 0.736.

What about the relative viability (BGJ398 + OSI-027; first compound 0.3162 µM) of the same cell line?
Its relative viability is 0.629.

And the relative viability (BGJ398 + OSI-027; first compound 1 µM)?
Its relative viability is 0.646.
